The subject of data set [1] is Trypanosoma brucei rhodesiense. Briefly: Antiprotozoal activity against Trypanosoma brucei rhodesiense STIB900 trypomastigotes after 72 hrs by Alamar Blue dye-based fluorometric analysis. In kind it is functional, organism-based. As to conditions: STIB900, 72 h.
Data set [2] deals with Trypanosoma cruzi. Briefly: Antiprotozoal activity against Trypanosoma cruzi Tulahuen C2C4 amastigotes infected in rat L6 cells after 96 hrs by inverted microscopic analysis. In kind it is functional, organism-based. As to conditions: Tulahuen C2C4, L6, 96 h.
Data set [3] relates to Leishmania donovani. Briefly: Antiprotozoal activity against Leishmania donovani MHOM/ET/67/L82 axenic amastigote after 72 hrs by inverted microscopic analysis. Type of data set: functional, organism-based. The following applies: MHOM/ET/67/L82, 72 h.
Data set [4] deals with Plasmodium falciparum. Briefly: Antiprotozoal activity against erythrocytic stage of Plasmodium falciparum K1 after 48 hrs by [3H]- hypoxanthine incorporation assay. Type of data set: functional, organism-based.
Data set [5] is described as follows: Cytotoxicity against rat L6 cels assessed as reduction in cell viability after 72 hrs by Alamar Blue dye-based fluorometric analysis. The following applies: L6 cells.
Data set [6] is described as follows: Selectivity index, ratio of CC50 for rat L6 cels to IC50 for erythrocytic stage of Plasmodium falciparum K1. Type of data set: toxicity. As to conditions: L6 cells, read-out: Ratio IC50.
Data set [7] in a line: Selectivity index, ratio of CC50 for rat L6 cels to IC50 for Leishmania donovani MHOM/ET/67/L82 axenic amastigote. In kind it is toxicity. As to conditions: L6 cells, read-out: Ratio IC50.
For data set [8], the system named is Trypanosoma cruzi. In words: Potency index, ratio of benznidazole IC50 to compound IC50 for Trypanosoma cruzi Tulahuen C2C4 amastigotes infected in rat L6 cells after 96 hrs by inverted microscopic analysis. In kind it is functional.
Data set [9] can be described thus: Selectivity index, ratio of CC50 for rat L6 cels to IC50 for Trypanosoma brucei rhodesiense STIB900 trypomastigotes. In kind it is toxicity. The following applies: L6 cells, read-out: Ratio IC50.

Each structure is given as a SMILES string. pIC50: −log10 of the molar value.

As for `Clc1ccc(C(c2c[nH]cc2-c2ccc(Cl)cc2-n2cccc2)n2ccnc2)c(Cl)c1` (stereo not drawn), the pIC50 in data set [1] was 4.92; in data set [2], 4.92; in [3], 4.97; in data set [4], 5.34. Further, in [5], the CC50 at 72 h came out at 7.67 µM. Further, the selectivity ratio in data set [6] came to 2.
Regarding `CCCCCCCCCCCCCCCCOP(=O)([O-])OCC[N+](C)(C)C` [MILTEFOSINE], the CC50 at 72 h in data set [5] came to 137 µM. Moreover, the selectivity ratio in data set [7] is 245.
As to `COc1ccc(-c2c[nH]cc2C(c2ccc(Cl)cc2Cl)n2ccnc2)cc1` (stereo not drawn), the pIC50 is 4.55 in [1], 7.30 in [2], 5.26 in data set [3] and 6.34 in [4]. For the same compound, in data set [5], the CC50 at 72 h was 14.8 µM. Moreover, the selectivity ratio was 3 in data set [7] and 32 in data set [6]. The “Ratio IC50” value in data set [8] was determined as 57.
In the case of `CCc1ccc(-c2c[nH]cc2C(c2ccc(Cl)cc2Cl)n2ccnc2)cc1` (stereo not drawn), the pIC50 in data set [1] is 4.65; in data set [2] it was 7.18; in data set [3], 5.31; in [4] it was 6.52. For the same compound, the CC50 at 72 h in [5] is 13.3 µM. The figures for the selectivity ratio in data set [7] and in data set [6] were 3 and 45, respectively. The “Ratio IC50” value in [8] is listed as 57.
In the case of `Clc1ccc(-c2c[nH]cc2[C@H](c2ccc(Cl)cc2Cl)n2ccnc2)cc1`, the pIC50 in [1] is 5.04; in data set [2], 9.05; in data set [4] it was 7.04. Besides, in [5], the CC50 at 72 h is 2.56 µM. Also, the selectivity ratio in data set [6] was found to be 28.
Turning to `N#Cc1ccc(C(c2ccn(-c3ccc(C#N)cc3)c2)n2ccnc2)cc1` (stereo not drawn), the pIC50 in data set [1] was 4.56; in data set [3], 4.07; in [4], 5.39. Besides, in data set [5], the CC50 at 72 h was 139 µM. In addition, the selectivity ratio amounted to 5 in data set [9], 2 in data set [7] and 34 in data set [6].
`O=[N+]([O-])c1ccc(-n2ccc(C(c3ccc(Cl)cc3)n3ccnc3)c2)cc1` (stereo not drawn): the pIC50 in data set [1] is 4.39; in data set [2], 5.21; in data set [3], 4.60; in data set [4], 5.34. Also, the CC50 at 72 h in [5] came out at 82.4 µM. In addition, the figures for the selectivity ratio in [9], in [7] and in data set [6] were 2, 3 and 18, respectively.
With `Clc1ccc(C(c2c[nH]cc2-c2ccc(Cl)c3ccccc23)n2ccnc2)c(Cl)c1` (stereo not drawn), the pIC50 was 4.78 in [1], 7.32 in data set [2], 5.32 in [3] and 6.48 in [4]. The CC50 at 72 h in data set [5] came to 4.9 µM. The selectivity ratio in data set [7] was found to be 1; in data set [6] it was 15.
As for `C[C@@H]1CC[C@H]2[C@@H](C)C(=O)O[C@@H]3O[C@@]4(C)CC[C@@H]1[C@]32OO4` [ARTEMISININ], the negative logarithm of the IC50 (pIC50) in data set [4] is 8.15. Further, the CC50 at 72 h in data set [5] was more than 350 µM. In [6], the selectivity ratio is more than 50000.
On to `CC(C)c1ccc(-c2c[nH]cc2C(c2ccc(Cl)cc2Cl)n2ccnc2)cc1` (stereo not drawn), for which the pIC50 is 4.62 in [1], 7.18 in data set [2], 5.28 in data set [3] and 6.55 in data set [4]. The CC50 at 72 h in [5] came out at 12.7 µM. For the same compound, the figures for the selectivity ratio in data set [7] and in [6] were 2 and 45, respectively. The “Ratio IC50” value in data set [8] was determined as 57.
Consider `Clc1ccc(C(c2c[nH]cc2-c2ccc(Cl)cc2-c2ccccc2)n2ccnc2)cc1` (stereo not drawn), for which the negative logarithm of the IC50 (pIC50) in data set [1] is 4.46; in data set [2], 6.69; in [3] it was 4.82; in data set [4] it was 7.23. The CC50 at 72 h in [5] is 14.9 µM. For the same compound, the selectivity ratio in [6] is 253. Moreover, the “Ratio IC50” value in [8] is 4 - 12.
On to `O=[N+]([O-])c1ccc(-n2ccc(C(c3ccccc3)n3ccnc3)c2)cc1` (stereo not drawn), for which the pIC50 in data set [1] is 4.84; in [2], 4.99; in data set [3], 4.51; in data set [4] it was 5.30. In data set [5], the cytotoxic concentration (CC50) at 72 h is 60.4 µM. The results for the selectivity ratio in [9], in data set [7] and in [6] were 4, 2 and 12, respectively.
Consider `FC(F)(F)c1ccc(-n2ccc(C(c3ccc(Cl)cc3)n3ccnc3)c2)cc1` (stereo not drawn), for which the pIC50 in [1] was 4.51; in [2] it was less than 4.13; in data set [3], 4.67; in [4] it was 5.74. Moreover, the CC50 at 72 h in data set [5] was found to be 40.1 µM. The figures for the selectivity ratio in [9], in data set [7] and in [6] were 1, 2 and 22, respectively.
Compound `CSc1ccc(-c2c[nH]cc2C(c2ccc(Cl)cc2Cl)n2ccnc2)cc1` (stereo not drawn) showed a pIC50 in data set [2] of 7.37. In addition, the “Ratio IC50” value in data set [8] stood at 57.
For `Clc1ccc(-c2c[nH]cc2[C@@H](c2ccc(Cl)cc2Cl)n2ccnc2)cc1`, the pIC50 in data set [1] was 4.91; in data set [2], 7.77; in data set [3], 5.30; in data set [4] it was 6.96. For the same compound, the CC50 at 72 h in [5] came out at 5.56 µM. In addition, the selectivity ratio was 1 in data set [7] and 51 in data set [6].
With `O=[N+]([O-])c1ccc(C(c2ccn(-c3ccc([N+](=O)[O-])cc3)c2)n2ccnc2)cc1` (stereo not drawn), the pIC50 in data set [1] was 4.93; in data set [2] it was 5.44; in data set [3], 4.75; in data set [4] it was 5.63. Also, the CC50 at 72 h in data set [5] is 159 µM. Further, the results for the selectivity ratio in [9], in data set [7] and in data set [6] were 13, 9 and 68, respectively.
For `Cc1ccc(-c2c[nH]cc2C(c2ccc(Cl)cc2Cl)n2ccnc2)cc1` (stereo not drawn), the pIC50 was 4.73 in data set [1], 7.30 in data set [2], 5.25 in data set [3] and 6.54 in data set [4]. Besides, the CC50 at 72 h in [5] worked out at 18.4 µM. For the same compound, the selectivity ratio in data set [7] is 3; in data set [6], 63. In data set [8], the “Ratio IC50” value amounted to 57.
With `Clc1ccc(C(c2c[nH]cc2-c2ccc(Cl)cc2-c2ccccc2)n2ccnc2)c(Cl)c1` (stereo not drawn), the pIC50 in data set [1] is 4.54; in data set [2], 6.85; in data set [3] it was 4.86; in data set [4], 7.02. Besides, in data set [5], the half-maximal cytotoxic concentration (CC50) at 72 h is 14.3 µM. The selectivity ratio in data set [7] is 1; in [6] it was 149. Moreover, the “Ratio IC50” value in data set [8] is reported as 4 - 12.
As for `Nc1nc(N)nc(Nc2ccc([As]3SCC(CO)S3)cc2)n1` (stereo not drawn) [MELARSOPROL], the CC50 at 72 h in data set [5] worked out at 28.9 µM. Moreover, the selectivity ratio in data set [9] amounted to 3280.
Regarding `CCN(CC)CCCC(C)Nc1ccnc2cc(Cl)ccc12` (stereo not drawn) [CHLOROQUINE], the CC50 at 72 h in data set [5] was 92.8 µM.
For `Clc1ccc(C(c2c[nH]cc2-c2ccc(Cl)cc2-c2cccs2)n2ccnc2)c(Cl)c1` (stereo not drawn), the pIC50 in data set [1] is 5.08; in data set [2], 7.57; in data set [3], 5.56; in data set [4], 6.57. In data set [5], the CC50 at 72 h stood at 4.93 µM. Further, the selectivity ratio in data set [7] turned out to be 2; in data set [6], 18. Also, the “Ratio IC50” value in data set [8] turned out to be 61.
`N#Cc1ccc(C(c2ccn(-c3ccc(Cl)cc3)c2)n2ccnc2)cc1` (stereo not drawn): the pIC50 is 4.45 in [1], 5.41 in data set [2], 4.52 in data set [3] and 5.66 in data set [4]. The half-maximal cytotoxic concentration (CC50) at 72 h in [5] was found to be 42.4 µM. Also, the figures for the selectivity ratio in data set [9], in data set [7] and in data set [6] were 1, 1 and 19, respectively.
On to `O=C(Cn1ccnc1[N+](=O)[O-])NCc1ccccc1` [BENZNIDAZOLE], for which the CC50 at 72 h in data set [5] is more than 385 µM.

Source of the values: ChEMBL document CHEMBL4411312, “Design, Synthesis, and Biological Evaluation of New 1-(Aryl-1 H-pyrrolyl)(phenyl)methyl-1 H-imidazole Derivatives as Antiprotozoal Agents” (J Med Chem, 2019).
